Consider five compounds from ChEMBL document CHEMBL1201862, “PubChem BioAssay data set” (2004).

For experiment [1], the system named is BJ. Nature of the experiment: cells. As to conditions: Homo sapiens. The format is functional, cell-based.
The nature of experiment [2]: HEK293T cytotoxicity, dose response, cytotoxicity control for miR-122 modulator project, cell-based, inhibitor set, cherry-pick, set 2 (AID 720697). The class given is functional.
The subject of the next experiment is INS1. Briefly: beta cell apoptosis inhibitors, cytokine rescue, dose response, luminescence, retest (AID 449756).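 Further: cell death triggered by IL-1 beta plus TNF-alpha plus IFN-gamma mixture; protective hits raise ATP signal compared with cytokine alone wells.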 The class given is functional, cell-based. As to conditions: Rattus norvegicus.
In experiment [3] the test system is Streptococcus sp. 'group A'. Briefly: growth inhibition of control SK(-) GAS strain, dose response, counter-screen for streptokinase expression inhibitor project, luminescence, kanamycin, BacTiterGlo, confirmation (AID 1900). The format is functional, organism-based. Background: The purpose of a counterscreen is to sort out artefacts and off-target activity.
Experiment [4] has as its system BJ. Nature of the experiment: cytotoxicity toward BJ-TERT fibroblasts, dose response, cell-based, RAS-independent, luminescence (AID 1933). The class given is functional. Conditions: Homo sapiens.
Experiment [5] can be described thus: miR-122 activators in hepatoma reporter cells, dose response, cell-based, Huh7 psiCHECK-miR122, Renilla luciferase, cherry-picked (AID 651956).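 Further: huh7 hepatoma cells stably carrying a psiCHECK-2 miR-122 sensor plasmid; renilla luciferase signal reporting endogenous miR-122 activity after 48 h compound exposure.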 The format is functional.
Experiment [6] relates to BJ. Briefly: cytotoxicity toward Ras-transformed BJeLR fibroblasts, dose response, cell-based, alamar blue fluorescence, cherrypicked samples (AID 2631).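 Further: confirmatory dose-response assay in RAS-dependent BJ fibroblasts engineered with TERT, LT and ST, with cytotoxicity read by fluorescence.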 The class given is functional. As to conditions: Homo sapiens. (Resazurin is reduced to fluorescent resorufin, in cell work by metabolically active cells.)
Experiment [7] concerns BJ. Briefly: cytotoxicity toward BJ-TERT-LT-ST fibroblasts, dose response, cell-based, RAS-independent, luminescence (AID 1935).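 Further: BJ fibroblasts immortalized with TERT plus LT and ST oncogenes.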 Conditions: Homo sapiens. The class given is functional.
Experiment [8] is described as follows: luciferase reporter signal reduction – luminescence, H4-C neuroglioblastoma cells, dose response (AID 2458).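 Further: H4 neuroglioblastoma cells stably carrying a luciferase reporter gene fusion.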 The format is functional, cell-based. For orientation: A reporter such as luciferase makes a cellular process visible.
Experiment [9] in a line: inhibitors of SNCA 5'UTR-driven reporter translation, confirmation, H4 neuroglioma cells, luminescence (AID 1988). The format is functional, cell-based.
A further experiment has as its system Streptococcus. Nature of the experiment: Group A Streptococcus viability loss, dose response, counter-screen for streptokinase expression inhibitor project, luminescence, BacTiterGlo (AID 1915).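 Further: potency for reduction of bacterial viability or growth.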 The class given is functional, organism-based.
The nature of experiment [10]: HEK293T cytotoxicity, dose response, cytotoxicity control for miR-122 modulator project, cell-based, activator set, cherry-pick (AID 720690).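 Further: HEK293T human cells scored for general mammalian cytotoxicity.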 The class given is functional.
Another experiment concerns the target T1, Streptokinase A (Streptococcus pyogenes serotype M1, UniProt P10520).
T1 sequence (P10520 whole entry): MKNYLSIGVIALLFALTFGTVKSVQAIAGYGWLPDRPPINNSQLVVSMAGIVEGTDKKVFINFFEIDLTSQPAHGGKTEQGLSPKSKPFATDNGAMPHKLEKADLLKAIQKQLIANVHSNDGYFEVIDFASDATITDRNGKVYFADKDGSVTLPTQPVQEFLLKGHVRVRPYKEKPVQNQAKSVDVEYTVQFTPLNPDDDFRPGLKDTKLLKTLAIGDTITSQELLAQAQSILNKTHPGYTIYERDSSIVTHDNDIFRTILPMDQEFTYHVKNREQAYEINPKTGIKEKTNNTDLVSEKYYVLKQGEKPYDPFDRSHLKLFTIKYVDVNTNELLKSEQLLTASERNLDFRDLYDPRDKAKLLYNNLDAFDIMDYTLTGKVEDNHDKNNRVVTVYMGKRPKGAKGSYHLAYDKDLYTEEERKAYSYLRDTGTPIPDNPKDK
Nature of the experiment: S. pyogenes streptokinase expression inhibitors, potency, dose response, plasminogen activation absorbance, OD405 (AID 1914).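 Further: secreted streptokinase activity via plasminogen activation per viability signal from cell pellet.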 The format is functional, Streptococcus pyogenes M1 GAS.

The nature of experiment [11]: cytotoxicity toward DRD oncogenic fibroblasts, dose response, cell-based, non-viral oncogenic, luminescence (AID 1934). The class given is functional. As to conditions: Homo sapiens.
Experiment [12] has as its target Heat shock protein HSP 90-alpha (Homo sapiens, UniProt P07900). The class given is functional, organism-based.
Experiment [13] is described as follows: inhibitors of firefly luciferase expression or activity, dose response, H4 neuroglioma cells, luminescence (AID 1990). The class given is functional, cell-based.
The nature of a further experiment: cells. The format is functional, cell-based.
A short description of experiment [14]: inhibitors of SNCA 5'UTR-driven translation, confirmation, luminescence, H4 neuroglioblastoma cells, dose confirmation (AID 2454).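 Further: H4 neuroglioblastoma cells carrying an alpha-synuclein 5'UTR luciferase reporter; potency for inhibition of the luciferase signal.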 The format is functional, cell-based.
The next experiment has as its system HEK293. Briefly: inhibitors of LMP1-driven NF-kB reporter, dose response, cell-based, HEK293, luciferase, cherry-pick (AID 588343). The format is functional. As to conditions: Homo sapiens.
A short description of experiment [15]: Luminescence Cell-Based Dose Response HTS to Identify Inhibitors of 5'UTR Stem-Loop Driven Prion Protein mRNA Translation in H4 Neuroglioblastoma Cells. [Related pubchem assays: 1827 (Project Summary), 1813 (Primary HTS)]. The format is functional.
A short description of experiment [16]: ADAM10 protease inhibitors, dose response, selectivity assay for ADAM17 exosite inhibitor project, biochemical, FRET peptide substrate, recombinant human ADAM10 (AID 743259).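 Further: ADAM10 enzyme cleaving a FRET peptide substrate.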
Experiment [17] deals with Disintegrin and metalloproteinase domain-containing protein 17 (Homo sapiens, UniProt P78536). Nature of the experiment: exosite inhibitors of ADAM17, dose response, biochemical (AID 743260).
Sequence of Disintegrin and metalloproteinase domain-containing protein 17 (P78536 whole entry, the tested form may be a part): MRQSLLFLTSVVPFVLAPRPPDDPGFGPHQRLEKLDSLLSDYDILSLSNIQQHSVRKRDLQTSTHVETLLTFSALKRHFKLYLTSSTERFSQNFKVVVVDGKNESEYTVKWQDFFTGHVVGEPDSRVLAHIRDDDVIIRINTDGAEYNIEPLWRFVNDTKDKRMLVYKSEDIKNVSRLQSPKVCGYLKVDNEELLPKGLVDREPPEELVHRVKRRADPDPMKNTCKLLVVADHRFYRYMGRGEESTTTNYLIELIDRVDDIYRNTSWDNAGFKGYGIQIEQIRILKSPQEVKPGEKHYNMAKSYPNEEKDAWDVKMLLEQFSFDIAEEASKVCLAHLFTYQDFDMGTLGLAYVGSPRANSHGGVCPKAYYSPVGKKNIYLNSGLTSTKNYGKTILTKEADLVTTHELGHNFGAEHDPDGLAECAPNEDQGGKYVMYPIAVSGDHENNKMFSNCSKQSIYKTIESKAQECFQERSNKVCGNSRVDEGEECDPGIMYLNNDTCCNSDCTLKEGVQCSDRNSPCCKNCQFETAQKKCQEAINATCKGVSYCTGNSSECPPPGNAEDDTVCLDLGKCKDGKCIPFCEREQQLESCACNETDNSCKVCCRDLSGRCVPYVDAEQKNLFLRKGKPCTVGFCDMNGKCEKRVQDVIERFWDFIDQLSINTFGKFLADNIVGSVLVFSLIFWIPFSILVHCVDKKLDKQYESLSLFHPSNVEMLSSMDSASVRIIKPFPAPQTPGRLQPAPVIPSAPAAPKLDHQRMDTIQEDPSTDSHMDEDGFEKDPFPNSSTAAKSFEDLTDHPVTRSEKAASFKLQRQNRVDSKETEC
Experiment [18] has as its target 1-phosphatidylinositol 4,5-bisphosphate phosphodiesterase beta-3 (Homo sapiens, UniProt Q01970). Briefly: Fluorescence-based biochemical high throughput dose response assay to identify inhibitors of phospholipase C isozymes (PLC-B3).
Experiment [19] has as its target 1-phosphatidylinositol 4,5-bisphosphate phosphodiesterase gamma-1 (Homo sapiens, UniProt P19174). Nature of the experiment: Counterscreen for inhibitors of phospholipase C isozymes (PLC-B3): Fluorescence-based biochemical high throughput dose response assay to identify inhibitors of phospholipase C isozymes (PLC-gamma1).
The subject of the next experiment is HeLa. Nature of the experiment: HeLa cell cytotoxicity, dose response, cytotoxicity control, ATP luminescence, cherry-pick samples (AID 687004). Conditions: Homo sapiens. The class given is functional, cell-based.
Experiment [20] in a line: cytotoxicity in HeLa cells, dose response, cytotoxicity control, cell-based, plate reader, dry powder (AID 651946). The format is functional.

One may read the EC50 as the concentration that produces a half-maximal response. For orientation: AC50 means the concentration at which the activity in the assay is half-maximal. The IC50 is the concentration at which inhibition is half-maximal.

Activity calls are given as the source filed them. For most assays here, no stated cut-off is given here; in the data, actives have a measured EC50 and inactives only a lower limit.

Sequence of 1-phosphatidylinositol 4,5-bisphosphate phosphodiesterase beta-3 (Q01970 whole entry): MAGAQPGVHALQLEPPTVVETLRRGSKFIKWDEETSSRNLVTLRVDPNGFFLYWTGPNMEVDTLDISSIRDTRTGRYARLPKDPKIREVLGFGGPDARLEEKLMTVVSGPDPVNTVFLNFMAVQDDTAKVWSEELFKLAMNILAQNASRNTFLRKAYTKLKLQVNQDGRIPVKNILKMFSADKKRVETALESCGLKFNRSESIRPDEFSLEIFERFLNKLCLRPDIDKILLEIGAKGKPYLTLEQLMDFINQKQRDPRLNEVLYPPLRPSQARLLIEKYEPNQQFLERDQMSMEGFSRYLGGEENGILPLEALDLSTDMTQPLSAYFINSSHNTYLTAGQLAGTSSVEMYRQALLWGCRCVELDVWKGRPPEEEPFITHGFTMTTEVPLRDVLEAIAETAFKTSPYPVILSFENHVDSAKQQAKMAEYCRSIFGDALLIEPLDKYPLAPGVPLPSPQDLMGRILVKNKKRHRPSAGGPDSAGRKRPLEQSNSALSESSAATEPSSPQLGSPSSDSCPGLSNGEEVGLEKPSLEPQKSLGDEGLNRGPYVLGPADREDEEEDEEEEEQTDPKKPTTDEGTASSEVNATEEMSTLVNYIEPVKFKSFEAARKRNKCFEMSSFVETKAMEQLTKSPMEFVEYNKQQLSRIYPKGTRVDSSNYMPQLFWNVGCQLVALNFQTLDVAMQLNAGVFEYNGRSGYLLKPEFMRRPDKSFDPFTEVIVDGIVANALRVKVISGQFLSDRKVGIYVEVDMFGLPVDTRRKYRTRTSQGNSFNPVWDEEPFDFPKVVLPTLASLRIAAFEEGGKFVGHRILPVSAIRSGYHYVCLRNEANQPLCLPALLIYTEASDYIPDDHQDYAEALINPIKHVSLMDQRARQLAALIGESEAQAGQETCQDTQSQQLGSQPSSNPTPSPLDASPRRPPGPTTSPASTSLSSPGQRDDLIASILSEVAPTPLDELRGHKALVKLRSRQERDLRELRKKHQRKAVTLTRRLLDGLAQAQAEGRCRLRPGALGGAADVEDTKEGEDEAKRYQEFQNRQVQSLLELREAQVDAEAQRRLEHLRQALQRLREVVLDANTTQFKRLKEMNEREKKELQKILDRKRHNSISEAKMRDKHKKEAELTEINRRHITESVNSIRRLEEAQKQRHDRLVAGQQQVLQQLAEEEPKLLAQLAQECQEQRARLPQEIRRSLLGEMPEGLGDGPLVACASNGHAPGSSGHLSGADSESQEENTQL
Sequence of 1-phosphatidylinositol 4,5-bisphosphate phosphodiesterase gamma-1 (P19174 whole entry): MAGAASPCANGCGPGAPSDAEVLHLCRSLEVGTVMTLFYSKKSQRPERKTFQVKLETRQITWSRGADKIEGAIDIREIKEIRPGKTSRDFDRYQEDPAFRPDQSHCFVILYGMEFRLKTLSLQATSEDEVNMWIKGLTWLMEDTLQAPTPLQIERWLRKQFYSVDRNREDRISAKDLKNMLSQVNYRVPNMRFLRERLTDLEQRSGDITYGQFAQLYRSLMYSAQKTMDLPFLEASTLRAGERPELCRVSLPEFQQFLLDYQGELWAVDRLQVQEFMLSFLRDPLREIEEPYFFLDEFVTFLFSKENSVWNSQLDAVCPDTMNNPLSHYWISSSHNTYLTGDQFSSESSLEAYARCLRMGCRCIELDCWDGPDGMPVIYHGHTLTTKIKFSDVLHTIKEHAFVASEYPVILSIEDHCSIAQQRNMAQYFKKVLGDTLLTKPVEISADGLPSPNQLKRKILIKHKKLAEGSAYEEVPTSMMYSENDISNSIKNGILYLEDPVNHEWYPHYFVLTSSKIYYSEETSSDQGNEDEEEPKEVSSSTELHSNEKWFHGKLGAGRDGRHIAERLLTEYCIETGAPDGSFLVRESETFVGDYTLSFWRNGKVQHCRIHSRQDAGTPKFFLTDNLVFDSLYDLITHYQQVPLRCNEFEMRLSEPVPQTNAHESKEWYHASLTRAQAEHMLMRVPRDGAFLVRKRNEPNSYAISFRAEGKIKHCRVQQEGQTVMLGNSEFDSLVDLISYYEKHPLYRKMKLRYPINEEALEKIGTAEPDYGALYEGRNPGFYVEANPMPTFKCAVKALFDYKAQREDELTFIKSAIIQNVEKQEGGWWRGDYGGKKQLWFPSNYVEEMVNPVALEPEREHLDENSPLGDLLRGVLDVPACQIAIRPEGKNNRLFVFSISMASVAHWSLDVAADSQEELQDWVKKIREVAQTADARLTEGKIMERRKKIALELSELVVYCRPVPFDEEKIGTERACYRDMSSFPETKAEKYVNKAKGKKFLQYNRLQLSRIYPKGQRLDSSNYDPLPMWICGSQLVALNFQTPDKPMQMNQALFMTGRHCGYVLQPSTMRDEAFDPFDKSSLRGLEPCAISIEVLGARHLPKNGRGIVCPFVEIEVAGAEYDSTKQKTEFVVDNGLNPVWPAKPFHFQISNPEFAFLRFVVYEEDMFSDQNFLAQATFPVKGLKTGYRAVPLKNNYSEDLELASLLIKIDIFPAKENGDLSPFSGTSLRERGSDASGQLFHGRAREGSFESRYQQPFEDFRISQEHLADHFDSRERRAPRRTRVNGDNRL

As to `Cc1sc2ncnc(N/N=C/c3ccccc3O)c2c1C`, the EC50 is 4.2 µM (active) in the experiment on BJ [1]; 1.97 µM (active) in [3]; 5.5 µM (inconclusive) in the experiment on BJ [4]; 4.53 µM (active) in the experiment on BJ [6]; 5.79 µM (inconclusive) in the experiment on BJ [7]; 1.17 µM (active) in experiment [8]. The EC50 in experiment [9] is < 0.1 µM (active); in the experiment with Streptococcus it was 6.53 µM (active); on Streptokinase A, 8.21 µM (active); in experiment [11], 3.5 µM (active); in experiment [13], 7.52 µM (active); in “cells”, 1.22 µM (active). The EC50 in [14] was 0.993 µM (active); in experiment [15], 20.5 µM (active). In addition, the AC50 in experiment [2] is 1.19 µM (active); in the experiment with INS1, 0.642 µM (active); in experiment [5], 8.43 µM (active); in experiment [10], 3.28 µM (active); in experiment [12], 2.1 µM (active); in the experiment with HEK293, 9.16 µM (active).

Take `COc1ccccc1CNS(=O)(=O)c1cc(-c2cc(C)no2)ccc1C(C)C`: the IC50 in experiment [16] and in [17] was > 69.5 µM (inactive) throughout.

Consider `O=C(N/N=C/c1ccc(OC(=O)c2ccccc2)cc1)c1cccc(O)c1`, for which the IC50 in experiment [18] and in experiment [19] was > 122 µM (inactive) each time.

With `COc1cccc(S(=O)(=O)Nc2ccc3c(c2)OC[C@H](C)NC[C@@H](C)[C@H](OC)CN(C)C3=O)c1`, in the experiment on HeLa, the AC50 is > 52 µM (inactive).

For `c1ccc(-c2nnc(SC(c3ccccc3)c3ccccc3)o2)cc1`, the AC50 in experiment [20] is > 52 µM (inactive).
